The values that follow come from publication PMC12124671, “Drug repurposing reveals posaconazole as a CYP11A1 inhibitor enhancing anti-tumor immunity” (iScience, 2025).

The target of experiment [1] is T1, CYP11A1 (Mus musculus, UniProt Q9QZ82).
T1 sequence (Q9QZ82 37-526): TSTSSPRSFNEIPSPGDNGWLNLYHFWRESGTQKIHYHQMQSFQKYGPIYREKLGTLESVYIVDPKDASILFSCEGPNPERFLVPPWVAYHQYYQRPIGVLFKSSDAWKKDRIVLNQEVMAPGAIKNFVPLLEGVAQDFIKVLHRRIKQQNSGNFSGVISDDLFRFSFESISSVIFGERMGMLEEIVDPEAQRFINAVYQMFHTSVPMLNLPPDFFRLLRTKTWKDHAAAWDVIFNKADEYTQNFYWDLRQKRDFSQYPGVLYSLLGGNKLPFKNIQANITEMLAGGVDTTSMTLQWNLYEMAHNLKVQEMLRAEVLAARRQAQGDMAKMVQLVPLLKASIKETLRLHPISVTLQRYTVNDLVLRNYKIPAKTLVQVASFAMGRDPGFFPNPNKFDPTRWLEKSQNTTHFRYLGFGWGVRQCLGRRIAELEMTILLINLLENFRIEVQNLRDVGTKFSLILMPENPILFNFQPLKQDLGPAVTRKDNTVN
Nature of the experiment: pregnenolone ELISA in murine Th2 cells (endogenous Cyp11a1), dose response. Type of experiment: cell-based. For orientation: ELISA stands for enzyme-linked immunosorbent assay.

Experiment [2] concerns the target T1, CYP11A1. Nature of the experiment: pregnenolone ELISA in murine Th2 cells (endogenous Cyp11a1), reference inhibitor, […] h dose response. It counts as cell-based.

Each structure is given as a SMILES string.

Usually IC50 stands for the concentration needed to halve the response being measured. Take `CC[C@@H]([C@H](C)O)n1ncn(-c2ccc(N3CCN(c4ccc(OC[C@@H]5CO[C@@](Cn6cncn6)(c6ccc(F)cc6F)C5)cc4)CC3)cc2)c1=O` [posaconazole]: at CYP11A1 [1], the concentration for half-maximal inhibition (IC50) was 0.218 µM. Regarding `CCC1(c2ccc(N)cc2)CCC(=O)NC1=O` (centres unmarked) [aminoglutethimide], the concentration for half-maximal inhibition (IC50) against CYP11A1 [2] turned out to be 1.08 µM.
